Source: ChEMBL document CHEMBL1140624, “Improved biochemical strategies for targeted delivery of taxoids” (Bioorg Med Chem, 2007)
Values after ≈ are worked out from the molar mass of the structure shown. Active and inactive are the calls of the source. The rule behind the calls is not given here.

How the values were obtained:
MCF7 [1] = test: Cytotoxicity against human MCF7 cells; format: functional, cell-based
EVSA-T = test: Cytotoxicity against human EVSA-T cells; format: functional, cell-based
[2] = Cytotoxicity against human H226 cells; format: functional, cell-based; details: NCI-H226
[3] = Cytotoxicity against human IGROV cells; format: functional, cell-based
WiDr = test: Cytotoxicity against human WIDR cells; format: functional, cell-based
A498 = test: Cytotoxicity against human A498 cells; format: functional, cell-based
[4] = test system: M19 melanoma cell line (human); test: Cytotoxicity against human M19 melanoma cells
[5] = Half life in DTT buffer assessed as taxol release; format: ADME
MDA-MB-231 = test: Cytotoxicity against ERalpha negative human MDA-MB-231 cells; format: functional, cell-based
MCF7 [6] = test: Cytotoxicity against ERalpha positive human MCF7 cells; format: functional, cell-based
PC-3 = test: Cytotoxicity against ERbeta positive human PC3 cells; format: functional, cell-based
[7] = Aqueous solubility of the compound; format: physicochemical; details: aqueous solution
OVCAR-3 [8] = test: Cytotoxicity against human OVCAR-3 cells; format: functional, cell-based
OVCAR-3 [9] = test: Cytotoxicity against human OVCAR-3 cells in presence of beta-glucuronidase; format: functional, cell-based
A2780 = test: Cytotoxicity against ERbeta negative human A2780 cells; format: functional, cell-based
LoVo [10] = test: Ratio of IC50 of drug for human LoVo cells to IC50 of taxol for human LoVo cells; format: functional
LoVo [11] = test: Cytotoxicity against human LoVo cells in presence of beta-glucuronidase; format: functional, cell-based

For `CC(=O)O[C@H]1C(=O)[C@@]2(C)[C@H]([C@H](OC(=O)c3ccccc3)[C@]3(O)C[C@H](OC(=O)[C@H](OC(=O)OC/C=C/c4ccc([N+](=O)[O-])cc4)[C@@H](NC(=O)c4ccccc4)c4ccccc4)C(C)=C1C3(C)C)[C@]1(OC(C)=O)CO[C@@H]1C[C@@H]2O`, the IC50 (MCF7 [1]) was 0.186 µg/mL (≈ 0.176 µM), the IC50 (EVSA-T) was 0.221 µg/mL (≈ 0.209 µM) and the IC50 [2] was 0.187 µg/mL (≈ 0.177 µM). For the same compound, the IC50 [3] was 0.62 µg/mL (≈ 0.585 µM), the IC50 (WiDr) was 0.308 µg/mL (≈ 0.291 µM) and the IC50 (A498) was 0.187 µg/mL (≈ 0.177 µM). It also gave an IC50 [4] of 0.384 µg/mL (≈ 0.363 µM).

With `CC(=O)O[C@H]1C(=O)[C@@]2(C)[C@H]([C@H](OC(=O)c3ccccc3)[C@]3(O)C[C@H](OC(=O)[C@H](OC(=O)C(C)(C)CCSSc4ccccn4)[C@@H](NC(=O)c4ccccc4)c4ccccc4)C(C)=C1C3(C)C)[C@]1(OC(C)=O)CO[C@@H]1C[C@@H]2O` the t1/2 [5] was 4 min.

For `CC(=O)O[C@H]1C(=O)[C@@]2(C)[C@H]([C@H](OC(=O)c3ccccc3)[C@]3(O)C[C@H](OC(=O)[C@H](OC(=O)N(C)CCN(C)C(=O)[C@H](CCCCN)NC(=O)[C@H](Cc4ccccc4)NC(=O)[C@@H](C)N)[C@@H](NC(=O)c4ccccc4)c4ccccc4)C(C)=C1C3(C)C)[C@]1(OC(C)=O)CO[C@@H]1C[C@@H]2O.Cl`, the IC50 (MDA-MB-231) was 4.5 nM, the IC50 (MCF7 [6]) was 4.9 nM and the IC50 (PC-3) was 77 nM. It also gave an IC50 (MCF7 [1]) of 0.0066 µg/mL, an IC50 (EVSA-T) of 0.0072 µg/mL and an IC50 [2] of 0.021 µg/mL. It also gave an IC50 [3] of 0.011 µg/mL, an IC50 (WiDr) of 0.01 µg/mL and an IC50 (A498) of 0.038 µg/mL. The IC50 [4] was 0.017 µg/mL.

`CC(=O)O[C@H]1C(=O)[C@@]2(C)[C@H]([C@H](OC(=O)c3ccccc3)[C@]3(O)C[C@H](OC(=O)[C@H](OC(=O)OCc4ccc(NC(=O)[C@H](CCCCN)NC(=O)[C@H](CC(C)C)NC(=O)[C@H](N)C(C)C)cc4)[C@@H](NC(=O)c4ccccc4)c4ccccc4)C(C)=C1C3(C)C)[C@]1(OC(C)=O)CO[C@@H]1C[C@@H]2O.Cl` showed an IC50 (MCF7 [1]) of 0.0092 µg/mL, an IC50 (EVSA-T) of 0.0093 µg/mL and an IC50 [2] of 0.016 µg/mL. The IC50 [3] was 0.027 µg/mL, the IC50 (WiDr) was 0.011 µg/mL and the IC50 (A498) was over 0.06 µg/mL. For the same compound, the IC50 [4] was 0.02 µg/mL.

With `CC(=O)O[C@H]1C(=O)[C@@]2(C)[C@H]([C@H](OC(=O)c3ccccc3)[C@]3(O)C[C@H](OC(=O)[C@H](OC(=O)NCCNC(=O)[C@H](CCCCN)NC(=O)[C@H](Cc4ccccc4)NC(=O)[C@@H](C)N)[C@@H](NC(=O)c4ccccc4)c4ccccc4)C(C)=C1C3(C)C)[C@]1(OC(C)=O)CO[C@@H]1C[C@@H]2O.Cl` the IC50 (MDA-MB-231) was 4.5 nM, the IC50 (MCF7 [6]) was 4.9 nM and the IC50 (PC-3) was 77 nM. It also gave an IC50 (MCF7 [1]) of 0.016 µg/mL, an IC50 (EVSA-T) of 0.011 µg/mL and an IC50 [2] of 0.041 µg/mL. It also gave an IC50 [3] of 0.019 µg/mL, an IC50 (WiDr) of 0.013 µg/mL and an IC50 (A498) of 0.04 µg/mL. It also gave an IC50 [4] of 0.045 µg/mL.

With `CC(=O)O[C@H]1C(=O)[C@@]2(C)[C@H]([C@H](OC(=O)c3ccccc3)[C@]3(O)C[C@H](OC(=O)[C@H](OC(=O)C[C@H](O)C(=O)[O-])[C@@H](NC(=O)c4ccccc4)c4ccccc4)C(C)=C1C3(C)C)[C@]1(OC(C)=O)CO[C@@H]1C[C@@H]2O.[Na+]` the solubility [7] was 600 µg/mL, the IC50 (MCF7 [1]) was under 0.003 µg/mL and the IC50 (EVSA-T) was under 0.003 µg/mL.

With `CC(=O)O[C@H]1C(=O)[C@@]2(C)[C@H]([C@H](OC(=O)c3ccccc3)[C@]3(O)C[C@H](OC(=O)[C@H](OC(=O)N(C)CCN(C)C(=O)[C@H](CCCCN)NC(=O)[C@H](CC(C)C)NC(=O)[C@H](N)C(C)C)[C@@H](NC(=O)c4ccccc4)c4ccccc4)C(C)=C1C3(C)C)[C@]1(OC(C)=O)CO[C@@H]1C[C@@H]2O.Cl` the IC50 (MDA-MB-231) was 4.5 nM, the IC50 (MCF7 [6]) was 4.9 nM and the IC50 (PC-3) was 77 nM. For the same compound, the IC50 (MCF7 [1]) was 0.0069 µg/mL, the IC50 (EVSA-T) was 0.0052 µg/mL and the IC50 [2] was 0.025 µg/mL. For the same compound, the IC50 [3] was 0.026 µg/mL, the IC50 (WiDr) was 0.011 µg/mL and the IC50 (A498) was 0.045 µg/mL. It also gave an IC50 [4] of 0.024 µg/mL.

For `CC(=O)O[C@H]1C(=O)[C@@]2(C)[C@H]([C@H](OC(=O)c3ccccc3)[C@]3(O)C[C@H](OC(=O)[C@H](OC(=O)C(C)(C)CCSSCC(NC(=O)CCC(N)C(=O)O)C(=O)NCC(=O)O)[C@@H](NC(=O)c4ccccc4)c4ccccc4)C(C)=C1C3(C)C)[C@]1(OC(C)=O)CO[C@@H]1C[C@@H]2O` (stereo not given in full), the t1/2 [5] was 60 min.

`CC(=O)O[C@H]1C(=O)[C@@]2(C)[C@H]([C@H](OC(=O)c3ccccc3)[C@]3(O)C[C@H](OC(=O)[C@H](OC(=O)N(C)CCNC(=O)[C@H](CCCCN)NC(=O)[C@H](Cc4ccccc4)NC(=O)[C@H](N)C(C)C)[C@@H](NC(=O)c4ccccc4)c4ccccc4)C(C)=C1C3(C)C)[C@]1(OC(C)=O)CO[C@@H]1C[C@@H]2O.Cl` showed an IC50 (MDA-MB-231) of 4.5 nM, an IC50 (MCF7 [6]) of 4.9 nM and an IC50 (PC-3) of 77 nM. The IC50 (MCF7 [1]) was over 0.063 µg/mL, the IC50 (EVSA-T) was over 0.063 µg/mL and the IC50 [2] was 0.048 µg/mL. For the same compound, the IC50 [3] was 0.045 µg/mL, the IC50 (WiDr) was 0.047 µg/mL and the IC50 (A498) was over 0.063 µg/mL. The IC50 [4] was 0.047 µg/mL.

With `CC(=O)O[C@H]1C(=O)[C@@]2(C)[C@H]([C@H](OC(=O)c3ccccc3)[C@]3(O)C[C@H](OC(=O)[C@H](OC(=O)Cc4ccc(NC(=O)O[C@@H]5O[C@H](C(=O)O)[C@@H](O)[C@H](O)[C@H]5O)cc4)[C@@H](NC(=O)c4ccccc4)c4ccccc4)C(C)=C1C3(C)C)[C@]1(OC(C)=O)CO[C@@H]1C[C@@H]2O` the IC50 (OVCAR-3 [8]) was 0.23 nM and the IC50 (OVCAR-3 [9]) was 0.23 nM.

In the case of `CC(=O)O[C@H]1C(=O)[C@@]2(C)[C@H]([C@H](OC(=O)c3ccccc3)[C@]3(O)C[C@H](OC(=O)[C@H](OC(=O)CCC(=O)O[C@@H]4C[C@]5(C)[C@@H](O)CC[C@H]5[C@@H]5CCc6cc(O)ccc6[C@H]54)[C@@H](NC(=O)c4ccccc4)c4ccccc4)C(C)=C1C3(C)C)[C@]1(OC(C)=O)CO[C@@H]1C[C@@H]2O`, the IC50 (MDA-MB-231) is reported as 51 nM, the IC50 (MCF7 [6]) is reported as 62 nM and the IC50 (PC-3) is reported as 40 nM. It also gave an IC50 (A2780) of 680 nM.

With `CC(=O)O[C@H]1C(=O)[C@@]2(C)[C@H]([C@H](OC(=O)c3ccccc3)[C@]3(O)C[C@H](OC(=O)[C@H](OC(=O)N(C)c4cc([N+](=O)[O-])ccc4O[C@@H]4O[C@H](C(=O)O)[C@@H](O)[C@H](O)[C@H]4O)[C@@H](NC(=O)c4ccccc4)c4ccccc4)C(C)=C1C3(C)C)[C@]1(OC(C)=O)CO[C@@H]1C[C@@H]2O` the “Ratio IC50” value (LoVo [10]) was 722 and the IC50 (LoVo [11]) was 100 nM.

For `CC(=O)O[C@H]1C(=O)[C@@]2(C)[C@H]([C@H](OC(=O)c3ccccc3)[C@]3(O)C[C@H](OC(=O)[C@H](OC(=O)/C=C/C[C@@H]4C[C@H]5[C@@H]6CCc7cc(O)ccc7[C@H]6CC[C@]5(C)[C@H]4O)[C@@H](NC(=O)c4ccccc4)c4ccccc4)C(C)=C1C3(C)C)[C@]1(OC(C)=O)CO[C@@H]1C[C@@H]2O`, the IC50 (MDA-MB-231) was 22 nM, the IC50 (MCF7 [6]) was 39 nM and the IC50 (PC-3) was 73 nM. For the same compound, the IC50 (A2780) was 180 nM.

With `Cn1c(=O)oc2ccc([N+](=O)[O-])cc21` the “Ratio IC50” value (LoVo [10]) was 3000 and the Activity (LoVo [11]) was “inactive”.

Work on `CC(=O)O[C@H]1C(=O)[C@@]2(C)[C@H]([C@H](OC(=O)c3ccccc3)[C@]3(O)C[C@H](OC(=O)[C@@H](OC(=O)/C=C/C[C@@H]4C[C@H]5[C@@H]6CCc7cc(O)ccc7[C@H]6CC[C@]5(C)[C@H]4O)[C@@H](NC(=O)c4ccccc4)c4ccccc4)C(C)=C1C3(C)C)[C@]1(OC(C)=O)CO[C@@H]1C[C@@H]2O` yielded an IC50 (MDA-MB-231) of 2200 nM, an IC50 (MCF7 [6]) of 1600 nM and an IC50 (PC-3) of 120 nM. For the same compound, the IC50 (A2780) was 8300 nM.

`CC(=O)O[C@H]1C(=O)[C@]2(C)[C@@H](OC(=O)C[C@H](O)C(=O)O)C[C@H]3OC[C@@]3(OC(C)=O)[C@H]2[C@H](OC(=O)c2ccccc2)[C@]2(O)C[C@H](OC(=O)[C@H](OC(=O)C[C@H](O)C(=O)O)[C@@H](NC(=O)c3ccccc3)c3ccccc3)C(C)=C1C2(C)C` gave a solubility [7] of 500 µg/mL (≈ 460 µM), an IC50 (MCF7 [1]) of 0.069 µg/mL (≈ 0.0635 µM) and an IC50 (EVSA-T) of 0.059 µg/mL (≈ 0.0543 µM).
